Test results reported in patent US12065654B2, “Plants having increased tolerance to herbicides” (BASF SE, priority 2014, dated 2024).

What was measured:
Picrophilus HPPD = experiment: HPPD activity assay; type: biochemical, Picrophilus torridus; settings: HPPD enzyme Picrophilus
Experimental: (§1) The activity assay for HPPD is based on the analysis of homogentisic acid by reversed phase HPLC.
(§2) The assay mixture can contain 150 mM potassium phosphate buffer pH 7.0, 50 mM L-ascorbic acid, 100 μM Catalase (Sigma-Aldrich), 1 μM FeSO4 and 0.2 units of purified HPPD enzyme in a total volume of 505 μl. 1 unit is defined as the amount of enzyme that is required to produce 1 nmol of HGA per minute at 20° C.
(§3) The reaction is allowed to proceed for 45 min at room temperature. The reaction is stopped by the addition of 50 μl of 4.5 M phosphoric acid. The sample is filtered using a […] pore size PVDF filtration device. 5 μl of the cleared sample is analyzed on an UPLC HSS T3 column (particle size 1.8 μm, dimensions 2, 1×50 mm; Waters) by isocratic elution using 90% 20 mM NaH2PO4 pH 2.2, 10% methanol (v/v).
(§4) HGA is detected electrochemically at 750 mV (mode: DC; polarity: positive) and quantified by integrating peak areas (Empower software; Waters).
(§5) Inhibitors are dissolved in DMSO (dimethylsulfoxide) to a concentration of 0.5 mM. From this stock solution serial five-fold dilutions are prepared in DMSO, which are used in the assay. The respective inhibitor solution accounts for 1% of the assay volume. Thus, final inhibitor concentrations range from 5 μM to 320 pM, respectively. Activities are normalized by setting the uninhibited enzyme activity to 100%. IC50 values are calculated using non-linear regression.
(§6) Using methods which are described in the above examples or well known in the art, purified recombinant wild-type HPPD enzymes are characterized with respect to their kinetic properties and sensitivity towards HPPD inhibiting herbicides. Apparent michaelis constants (Km) and maximal reaction velocities (Vmax) are calculated by non-linear regression with the software GraphPad Prism 5 (GraphPad Software, La Jolla, USA) using a substrate inhibition model. […] Weighted means (by standard error) of Km and IC50 values are calculated from at least three independent experiments. The Cheng-Prusoff equation for competitive inhibition (Cheng, Y. C.; Prusoff, W. H. Biochem Pharmacol 1973, 22, 3099-3108) is used to calculate dissociation constants (Ki).
(§7) Field performance of the HPPD enzyme, which is used as a herbicide tolerance trait may depend not only on its lack of sensitivity towards HPPD inhibiting herbicides but also on its activity. To assess the potential performance of a herbicide tolerance trait a tolerance index (TI) is calculated using the following formula: […]
(§8) Easy comparison and ranking of each trait is enabled by normalizing tolerance indexes on Arabidopsis wild-type HPPD.

Avena HPPD = experiment: HPPD activity assay; type: biochemical, Avena sativa; settings: HPPD enzyme Avena
Experimental: as §1, §2, §3, §4, §5, §6, §7, §8

Rhodococcus HPPD1 = experiment: HPPD activity assay; type: biochemical; settings: HPPD enzyme Rhodococcus HPPD1
Experimental: as §1, §2, §3, §4, §5, §6, §7, §8

Lolium HPPD = experiment: HPPD activity assay; type: biochemical; settings: HPPD enzyme Lolium
Experimental: as §1, §2, §3, §4, §5, §6, §7, §8

[1] = target: T1, Hordeum HPPD (SEQ ID NO:2) (Hordeum vulgare, UniProt O48604, A164G/R146V/R147D/R148G); experiment: HPPD activity assay; type: biochemical; settings: for Normalized tolerance index (TI): Hordeum HPPD variant Wild-type (reference, SEQ ID NO: 2); for TI (tolerance index): Hordeum HPPD, not normalized
T1 construct: His-tag (N); made in house; host or cells: E. coli BL21 (DE3)
Experimental: as §1, §2, §3, §4, §5, §6, §7, §8

Rhodococcus HPPD2 = experiment: HPPD activity assay; type: biochemical; settings: HPPD enzyme Rhodococcus HPPD2
Experimental: as §1, §2, §3, §4, §5, §6, §7, §8

Kordia HPPD = experiment: HPPD activity assay; type: biochemical; settings: HPPD enzyme Kordia
Experimental: as §1, §2, §3, §4, §5, §6, §7, §8

Synechococcus HPPD = experiment: HPPD activity assay; type: biochemical; settings: HPPD enzyme Synechococcus
Experimental: as §1, §2, §3, §4, §5, §6, §7, §8

HPPD Seq ID 69 ID406 = experiment: HPPD activity assay; type: biochemical, Zea mays; settings: HPPD enzyme Seq ID 69 ID406;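 note: reaction started with 4-HPP at 0.05 mM after 30 min preincubation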
Experimental: as §1, §2, §3, §4, §5, §6, §7, §8

HPPD Seq ID 67 ID10 = experiment: HPPD activity assay; type: biochemical, Zea mays; settings: HPPD enzyme Seq ID 67 ID10;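 note: reaction started with 4-HPP at 0.05 mM after 30 min preincubation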
Experimental: as §1, §2, §3, §4, §5, §6, §7, §8

[2] = target: T1, Hordeum HPPD (SEQ ID NO:2); experiment: HPPD activity assay; type: biochemical; settings: HPPD enzyme Hordeum
[3] = target: T2, Arabidopsis HPPD M335H, P336G, E363Q (Arabidopsis thaliana, UniProt P93836, E363Q/M335H/P336G); type: biochemical; settings: Arabidopsis HPPD variant M335H, normalized on wild-type
T2 construct: His6 (N); made in house; host or cells: E. coli BL21 (DE3)
Experimental: as §1, §2, §3, §4, §5
(§9) Purified, mutant HPPD enzymes are obtained by the methods described above. Dose response and kinetic measurements are carried out using the described HPPD activity assay. Apparent michaelis constants (Km) and maximal reaction velocities (Vmax) are calculated by non-linear regression with the software GraphPad Prism 5 (GraphPad Software, La Jolla, USA) using a substrate inhibition model. […] Weighted means (by standard error) of K. and IC50 values are calculated from at least three independent experiments. The Cheng-Prusoff equation for competitive inhibition (Cheng, Y. C.; Prusoff, W. H. Biochem Pharmacol 1973, 22, 3099-3108) is used to calculate dissociation constants (Ki).
as §7, with “of the optimized HPPD enzyme,” for “of the HPPD enzyme,”
(§10) Easy comparison and ranking of each trait is enabled by normalizing tolerance indexes on the respective wild-type HPPD.

Arabidopsis HPPD F381I = target: T3, Arabidopsis HPPD F381I (Arabidopsis thaliana, UniProt P93836, F381I); type: biochemical; settings: Arabidopsis HPPD variant F381I; normalized on wild-type;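 note: reaction started with 4-HPP at 0.05 mM after 30 min preincubation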
T3 construct: His6 (N); made in house; host or cells: E. coli BL21 (DE3)
Experimental: as §1, §2, §3, §4, §5, §9
as §7, with “of the optimized HPPD enzyme,” for “of the HPPD enzyme,”
as §10

[4] = target: T4, Arabidopsis HPPD M335H, P336A (Arabidopsis thaliana, UniProt P93836, M335H/P336A); type: biochemical; settings: Arabidopsis HPPD variant M335H, normalized on wild-type;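 note: reaction started with 4-HPP at 0.05 mM after 30 min preincubation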
T4 construct: His6 (N); made in house; host or cells: E. coli BL21 (DE3)
Experimental: as §1, §2, §3, §4, §5, §9
as §7, with “of the optimized HPPD enzyme,” for “of the HPPD enzyme,”
as §10

[5] = target: T5, Arabidopsis HPPD M335H, P336A, E363Q (Arabidopsis thaliana, UniProt P93836, E363Q/M335H/P336A); type: biochemical; settings: Arabidopsis HPPD variant M335H, normalized on wild-type;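 note: reaction started with 4-HPP at 0.05 mM after 30 min preincubation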
T5 construct: His6 (N); made in house; host or cells: E. coli BL21 (DE3)
Experimental: as §1, §2, §3, §4, §5, §9
as §7, with “of the optimized HPPD enzyme,” for “of the HPPD enzyme,”
as §10

[6] = target: T6, Arabidopsis HPPD M335H, P336G (Arabidopsis thaliana, UniProt P93836, M335H/P336G); type: biochemical; settings: Arabidopsis HPPD variant M335H, normalized on wild-type
T6 construct: His6 (N); made in house; host or cells: E. coli BL21 (DE3)
Experimental: as §1, §2, §3, §4, §5, §9
as §7, with “of the optimized HPPD enzyme,” for “of the HPPD enzyme,”
as §10

Arabidopsis HPPD F381L = target: T7, Arabidopsis HPPD F381L (Arabidopsis thaliana, UniProt P93836, F381L); type: biochemical; settings: Arabidopsis HPPD variant F381L; normalized on wild-type
T7 construct: His6 (N); made in house; host or cells: E. coli BL21 (DE3)
Experimental: as §1, §2, §3, §4, §5, §9
as §7, with “of the optimized HPPD enzyme,” for “of the HPPD enzyme,”
as §10

T1 sequence (O48604 whole entry R146V/R147D/R148G/A164G): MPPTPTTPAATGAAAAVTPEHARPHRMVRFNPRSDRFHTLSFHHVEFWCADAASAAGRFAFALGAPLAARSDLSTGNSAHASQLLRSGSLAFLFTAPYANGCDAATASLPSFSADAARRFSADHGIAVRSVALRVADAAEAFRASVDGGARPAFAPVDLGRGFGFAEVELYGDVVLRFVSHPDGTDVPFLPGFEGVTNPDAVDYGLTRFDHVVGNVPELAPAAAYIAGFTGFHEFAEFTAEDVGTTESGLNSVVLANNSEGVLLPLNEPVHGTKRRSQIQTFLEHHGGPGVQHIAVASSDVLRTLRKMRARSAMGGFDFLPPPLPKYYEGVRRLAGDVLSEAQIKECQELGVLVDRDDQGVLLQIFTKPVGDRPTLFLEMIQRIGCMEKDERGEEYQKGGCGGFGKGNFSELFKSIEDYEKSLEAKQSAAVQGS
T4 sequence (P93836 whole entry M335H/P336A): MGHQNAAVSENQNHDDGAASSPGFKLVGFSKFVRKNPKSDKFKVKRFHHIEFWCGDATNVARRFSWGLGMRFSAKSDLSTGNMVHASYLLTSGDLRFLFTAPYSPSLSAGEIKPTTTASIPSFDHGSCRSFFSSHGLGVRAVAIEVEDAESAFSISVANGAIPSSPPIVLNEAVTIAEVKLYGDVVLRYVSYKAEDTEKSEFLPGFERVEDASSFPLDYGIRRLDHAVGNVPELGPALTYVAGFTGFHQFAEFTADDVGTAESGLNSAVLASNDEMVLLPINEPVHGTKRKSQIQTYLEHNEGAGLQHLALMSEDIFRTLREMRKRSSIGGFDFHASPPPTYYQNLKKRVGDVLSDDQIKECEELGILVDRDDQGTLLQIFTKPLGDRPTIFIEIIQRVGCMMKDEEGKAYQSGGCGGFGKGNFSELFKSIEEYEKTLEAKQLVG
T5 sequence (P93836 whole entry M335H/P336A/E363Q): as the sequence (P93836 whole entry M335H/P336A) above, with E363Q counted along it
T3 sequence (P93836 whole entry F381I): as the sequence (P93836 whole entry M335H/P336A) above, with H335M, A336P, F381I counted along it
T7 sequence (P93836 whole entry F381L): as the sequence (P93836 whole entry M335H/P336A) above, with H335M, A336P, F381L counted along it
T6 sequence (P93836 whole entry M335H/P336G): as the sequence (P93836 whole entry M335H/P336A) above, with A336G counted along it
T2 sequence (P93836 whole entry M335H/P336G/E363Q): as the sequence (P93836 whole entry M335H/P336A) above, with A336G, E363Q counted along it

| Structure (SMILES) | TI normalized to Arabidopsis HPPD (Picrophilus HPPD) | TI normalized to Arabidopsis HPPD (Avena HPPD) | TI normalized to Arabidopsis HPPD (Rhodococcus HPPD1) | TI normalized to Arabidopsis HPPD (Lolium HPPD) | Ki [1] | Normalized tolerance index (TI) [1] | TI (tolerance index) [1] | TI normalized to Arabidopsis HPPD (Rhodococcus HPPD2) | TI normalized to Arabidopsis HPPD (Kordia HPPD) | TI normalized to Arabidopsis HPPD (Synechococcus HPPD) | TI normalized to Arabidopsis HPPD (HPPD Seq ID 69 ID406) | TI normalized to Arabidopsis HPPD (HPPD Seq ID 67 ID10) | TI normalized to Arabidopsis HPPD [2] | Normalized tolerance index (TI) [3] | Normalized tolerance index (TI) (Arabidopsis HPPD F381I) | Normalized tolerance index (TI) [4] | Normalized tolerance index (TI) [5] | Normalized tolerance index (TI) [6] | Normalized tolerance index (TI) (Arabidopsis HPPD F381L) |
| --- | --- | --- | --- | --- | --- | --- | --- | --- | --- | --- | --- | --- | --- | --- | --- | --- | --- | --- | --- |
| CS(=O)(=O)c1ccc(C(=O)C2C(=O)CCCC2=O)c([N+](=O)[O-])c1 [Inhibitor 2, 2-(4-methylsulfonyl-2-nitro-benzoyl)cyclohexane-1,3-dione] | 0.2 | 3 | 0.3 | 2.6 | 73 nM | 1 | 3.2E−2 | 0.3 | 0.1 | 2.1 | 5.6 | 22.9 | 0.9 | 0.1 | 0.1 | 0.1 | 0.3 | 0.1 | 0.1 |
| COCCOCc1nc(C(F)(F)F)ccc1C(=O)C1=C(O)C2CCC(C2)C1=O (stereo not drawn) [Inhibitor 3, 2-hydroxy-3-[2-(2-methoxyethoxymethyl)-6-(trifluoromethyl)pyridine-3-carbonyl]bicyclo[3.2.1]oct-2-en-4-one] | 7.8 | 2.5 | 1.2 | 2.5 |  | 1 |  | 1.3 | 0.3 | 0.0 | 9.9 | 20.1 | 0.2 | 0.1 | 0.1 | 0.1 | 0.5 | 0.3 | 0.1 |
| CS(=O)(=O)c1ccc(C(=O)C2C(=O)CCCC2=O)c(Cl)c1COCC(F)(F)F [Inhibitor 4, 2-[2-chloro-4-methylsulfonyl-3-(2,2,2-trifluoroethoxymethyl)benzoyl]cyclohexane-1,3-dione] | 0.4 | 3 | 0.6 | 2.6 |  | 1 |  | 0.5 | 0.1 | 0.1 | 5.5 | 26 | 0.1 | 0.1 | 0.1 | 0.1 | 0.3 | 0.2 | 0.1 |
| Cc1c(C(=O)c2cnn(C)c2O)ccc(S(C)(=O)=O)c1C1=NOCC1 [Inhibitor 1, [3-(4,5-dihydroisoxazol-3-yl)-2-methyl-4-methylsulfonyl-phenyl]-(5-hydroxy-1-methyl-pyrazol-4-yl)methanone] | 10.4 | 1.6 | 18.9 | 1.7 | 7.9 nM | 1 | 3.5E−3 | 19.3 | 3.2 | 6.7 | 15 | 120.8 | 3.7 | 3 | 10.8 | 3.4 | 6.4 | 5 | 11 |
